# In PMC12606464, “Investigating NFE2L1 activators for targeted protein aggregate clearance: a follow-up study” (RSC Medicinal Chemistry, 2025):
# Experiments:
# [1] = system: C. elegans wild-type (N2); test: Acute juglone/paraquat-induced oxidative stress resistance in C. elegans N2; format: in vivo, Caenorhabditis elegans; conditions: for # deaths/events: over 12 hours; for Median survival: Fig. 5C
# Description: Fig. 5 RUN-89 prevents protein aggregation and increases stress resistance in C. elegans. (A) The AM140 strain expressing aggregation-prone Q35-YFP was treated with 50 μM RUN-89 or the vehicle for 6 days, followed by microscopy analysis. Overall, 959 Q35-YFP foci (DMSO = 517; RUN-89 = 442) were identified in 102 animals (DMSO: N = 3 populations, n = 55 animals in total; RUN-89: N = 3 populations, n = 47 animals in total). The two dashed horizontal lines indicate the interquartile range, and the thick horizontal line represents the median. The Kolmogorov–Smirnov test verified a significant reduction of surface and integrated optical density of foci after RUN-89 treatment. (B) Representative images of two animals per treatment condition. Images were taken on the same day, using identical settings for the instruments used. (C) Protective effect of RUN-89 against juglone and paraquat-induced stress. […] The mortality was monitored hourly over a 12 hour period. […] For juglone treatment, 629 animals were examined (DMSO: N = 2 populations of 167 and 152 animals, n = 319 animals in total; RUN-89: N = 2 populations of 141 and 169 animals, n = 310 animals in total). Results were analyzed using the Kaplan–Meier method and are presented as survival percentages with standard errors. The survival curves were compared using the Gehan–Breslow–Wilcoxon test (juglone) and log-rank test (paraquat). (A and C) Detailed results of the analysis are shown in SI Tables S10 and S11. *p < 0.05, ****p < 0.001.
# Next, we examined whether the compound RUN-89 protects animals from oxidative damage/death induced by increased reactive oxygen species (ROS) levels. In worms, the herbicide paraquat and the naturally occurring quinone compound juglone are well-known for inducing oxidative stress.[84] In this experiment, the wild-type (N2) strain was used, and RUN-89 was administered at a concentration of 50 μM for 24 hours. Following this pretreatment, approximately 130 animals were transferred to plates containing either 180 μM juglone or 200 μM paraquat. Worm mortality was monitored over a 12-hour period. […]
# 2.13 C. elegans strains and maintenance
# The animals were kept at 20 °C according to standard cultivation conditions (Biron & […]
# (mgIs72 [rpt-3p::GFP + dpy-5(+)] II) of Caenorhabditis elegans strains and E. coli strain OP50 were obtained from the Caenorhabditis Genetic Centre (CGC, University of Minnesota , http://cbs.umn.edu/cgc/home). […]
# Kolmogorov-Smirnov test performed in GraphPad Prism (v 10.6.1).
# 2.15 Acute juglone/paraquat-induced oxidative stress resistance in C.
# Eggs of the wild-type strain (N2) were placed in liquid S-basal medium supplemented with E. coli OP50 as a food source. Upon reaching the young adult stage, they were exposed to either 50 µM RUN 89 or an equivalent volume of solvent (control group) and incubated at 20 °C for 24 hours. Approximately 130 animals were placed on plates containing either 180 µM juglone or 200 µM paraquat to induce severe oxidative stress .(5, 6) The number of dead animals was recorded each hour throughout the 12-hour experiment. The data were then analyzed using Kaplan-Meier survival analysis, and the results were examined through this method. Su rvival curves were compared via the Gehan-Breslow-Wilcoxon test or the log-rank (Mantel-Cox) test in GraphPad Prism software ( v 10.6.1).
# SH-SY5Y cells = test: Rotenone-induced α-synuclein proteotoxicity in SH-SY5Y cells; format: cell-based, human; conditions: SH-SY5Y expressing α-synuclein-GFP; pre-treatment 4 h (0.312-2.5 μM), rotenone 1.125 μM 24 h; approximately 30% without compounds
# Description: Fig. 3 (A) HEK293 cells were treated with RUN compounds at a concentration of 7.5 μM for 16 hours. DMSO was used as a vehicle control. Proteasome chymotrypsin-like activity was measured in cell lysates at 37 °C. Data came from three biological replicates (n = 3). Statistical analysis was done using ratio paired t-tests corrected for multiple comparisons with Holm–Šídák's method (α = 0.05). *p < 0.05. Detailed results of the analysis are shown in SI Table S7. (B) RUN-89 protects against polyQ-mediated toxicity in an NFE2L1-dependent manner. HCT116 parental cells (WT) and two independent DDI2 knockout clones (KO 04 and KO 11), in which NFE2L1 activation is impaired, were transiently transfected with plasmids encoding non-aggregating EGFP-HttQ23 or aggregation-prone EGFP-HttQ74. Cells were treated with 1 or 3 μM RUN-89 for 48 hours, and viability was measured using the alamarBlue assay. […] Data are shown as the Geomean ± GeoSD from four independent biological replicates (n = 4). […] (C left) The protective effect of RUN compounds was assessed by rotenone-induced α-synuclein proteotoxicity in SH-SY5Y cells, which mimics the PD-like phenotype. […]
# A second stress assay was performed using rotenone, a mitochondrial complex I inhibitor. […] After 4 hours, rotenone (1.125 μM) was added and one day later the viability of the cells was measured. […]
# [2] = juglon stress, B = juglon + DMSO, C = juglon + RUN-89
# [3] = paraquat stress, B = paraquat + DMSO, C = paraquat + RUN-89
smiles,measurement,setting,value
COc1ccc(/C=C2\CC(NC(=O)C3CCCC3)C/C(=C\c3ccc(OC)c(OC)c3)C2=O)cc1OC (stereo not shown) [RUN-89],Protection against juglone-induced lethal oxidative stress,"[1]; N2, 50 μM for 24 h, then 180 μM juglone, mortality over 12 h",significant protective effect
same,Protection against paraquat-induced lethal oxidative stress,"[1]; N2, 50 μM for 24 h, then 200 μM paraquat, mortality over 12 h",significant protective effect
same,"Ratio of median survival (reciprocal), juglon + RUN-89 / juglon + DMSO",[1]; juglon stress,1.25
same,"Ratio of median survival, juglon + DMSO / juglon + RUN-89",[1]; juglon stress,0.8
same,# deaths/events,"[1]; juglon stress, 306 subjects at 0 h",305
same,# at risk,"[1]; juglon stress, 1 hour, 306 at 0 h",306
same,# at risk,"[1]; juglon stress, 2 hours, 306 at 0 h",289
same,# at risk,"[1]; juglon stress, 3 hours, 306 at 0 h",235
same,# at risk,"[1]; juglon stress, 4 hours, 306 at 0 h",190
same,# at risk,"[1]; juglon stress, 5 hours, 306 at 0 h",164
same,# at risk,"[1]; juglon stress, 6 hours, 306 at 0 h",124
same,# at risk,"[1]; juglon stress, 7 hours, 306 at 0 h",105
same,# at risk,"[1]; juglon stress, 8 hours, 306 at 0 h",82
same,# at risk,"[1]; juglon stress, 9 hours, 306 at 0 h",37
same,# at risk,"[1]; juglon stress, 10 hours, 306 at 0 h",13
same,# at risk,"[1]; juglon stress, 11 hours, 306 at 0 h",7
same,# at risk,"[1]; juglon stress, 12 hours, 306 at 0 h",1
same,Median survival,"[1]; juglon stress, juglon + DMSO median 4",5 h
same,Hazard Ratio (Mantel-Haenszel) B/C,[1]; [2],1.206
same,Hazard Ratio (Mantel-Haenszel) C/B,[1]; [2],0.8295
same,Hazard Ratio (logrank) B/C,[1]; [2],1.141
same,Hazard Ratio (logrank) C/B,[1]; [2],0.8761
same,"Ratio of median survival (reciprocal), paraquat + RUN-89 / paraquat + DMSO",[1]; paraquat stress,1.4
same,"Ratio of median survival, paraquat + DMSO / paraquat + RUN-89",[1]; paraquat stress,0.7143
same,# deaths/events,"[1]; paraquat stress, 274 subjects at 0 h",273
same,# at risk,"[1]; paraquat stress, 1 hour, 274 at 0 h",274
same,# at risk,"[1]; paraquat stress, 2 hours, 274 at 0 h",263
same,# at risk,"[1]; paraquat stress, 3 hours, 274 at 0 h",241
same,# at risk,"[1]; paraquat stress, 4 hours, 274 at 0 h",216
same,# at risk,"[1]; paraquat stress, 5 hours, 274 at 0 h",209
same,# at risk,"[1]; paraquat stress, 6 hours, 274 at 0 h",167
same,# at risk,"[1]; paraquat stress, 7 hours, 274 at 0 h",148
same,# at risk,"[1]; paraquat stress, 8 hours, 274 at 0 h",130
same,# at risk,"[1]; paraquat stress, 9 hours, 274 at 0 h",109
same,# at risk,"[1]; paraquat stress, 10 hours, 274 at 0 h",84
same,# at risk,"[1]; paraquat stress, 11 hours, 274 at 0 h",44
same,# at risk,"[1]; paraquat stress, 12 hours, 274 at 0 h",11
same,Median survival,"[1]; paraquat stress, paraquat + DMSO median 5",7 h
same,Hazard Ratio (Mantel-Haenszel) B/C,[1]; [3],1.524
same,Hazard Ratio (Mantel-Haenszel) C/B,[1]; [3],0.6563
same,Hazard Ratio (logrank) B/C,[1]; [3],1.357
same,Hazard Ratio (logrank) C/B,[1]; [3],0.7368
same,Cell viability after rotenone treatment,SH-SY5Y cells,up to 70%
